Test system: HMG-CoA reductase (3-hydroxy-3-methyl-glutaryl-coenzyme A reductase)
Assay: HMG-CoA reductase enzyme activity determination (modified from G. C. Ness et al.), relative in vitro activity versus mevinolin
Format: biochemical, rat (male Rico rats, liver)
Details: from IC50 values, IC50 of reference mevinolin set at 1; 20 min preincubation at 37° C., 60 min incubation
Protocol: The enzyme activity determination was carried out as modified by G. C. Ness et al., Archives of Biochemistry and Biphysics 197, 493-499 [1979]. Male Rico rats (body weight 300-400 g) were treated for 11 days with altromin powdered feed to which 40 g of cholestyramine/kg of feed had been added. After description, the livers were removed from the animals and placed on ice. The livers were comminuted and homogenized 3 times in 3 volumes of 0.1 m sucrose, 0.05 m KCl, 0.04 m Kx Hy phosphate, 0.03 m ethylenediaminetetraacetic acid, 0.002 m dithiothreitol [SPE] buffer pH 7.2 in a Potter-Elvejem homogenizer. The mixture was then centrifuged at 15,000 g for 15 minutes and the sediment was discarded. […]
After incubating for 60 minutes at 37° C., the batch was centrifuged and 600 μl of the supernatant was applied to a 0.7×4 cm column packed with a 5-chloride 100-200 mesh (anion exchanger). The column was subsequently washed with 2 ml of distilled water and 3 ml of Aquasol were added to runnings plus washing water and counted in an LKB scintillation counter. IC50 values were determined by intrapolation by plotting the percentage inhibition against the concentration of the compound in the test. In order to determine the relative inhibitory potency, the IC50 value of the reference substance mevinolin was set at 1 and compared with the simultaneously determined IC50 value of the test compound.

| SMILES | relative activity (mevinolin = 1) |
| --- | --- |
| CCCCn1c(=O)[nH]c(=O)c2c(-c3ccc(F)cc3)c(/C=C/[C@@H](O)C[C@@H](O)CC(=O)OC)c(C(C)C)nc21 (relative stereo) [Example 8, Methyl erythro-(E)-7-[1-butyl-5-(4-fluorophenyl)-7-isopropyl-2,4-dioxo-1,2,3,4-terahydro-pyrido(2,3-d)pyrimidin-6-yl]-3,5-dihydroxy-hept-6-enoate] | 2 |
| COC(=O)C[C@H](O)C[C@H](O)/C=C/c1c(C(C)C)nc2c(c1-c1ccc(F)cc1)c(=O)[nH]c(=O)n2C (relative stereo) [Example 16, Methyl erythro-(E)-7-[5-(4-fluorophenyl)-7-isopropyl-1-methyl-2,4-dioxo-1,2,3,4-tetrahydro-pyrido(2,3-d)pyrimidin-6-yl]-3,5-dihydroxy-hept-6-enoate] | 6 |

Source: US5075311A, “HMG-CoA reductase inhibiting substituted pryido (2,3-d) pyrimidines” (Bayer Aktiengesellschaft, priority 1989, dated 1991)
